Target: T1, recombinant GPR52 (Homo sapiens, UniProt Q9Y2T5)
T1 construct: expressed in transfected cells
Experiment: HTRF cAMP assay for direct cAMP measurement
Format: cell-based
Details: mean EC50; CHO-K1 or HEK293 cells stably expressing recombinant GPR52
Experimental: HTRF cAMP assays were performed using commercially available assay kits according to the manufacturer's instructions (cAMP Dynamic 2 Assay Kit; #62AM4PEJ, Cisbio Bioassays, Bedford, Mass.). CHO-K1 or HEK293 cells stably expressing recombinant GPR52 were harvested and resuspended in assay buffer (PBS containing 0.5 mM IBMX and 0.1% BSA) at a density of 1.2×10^6 cells per mL. […] Test compounds were solubilized and serially diluted in DMSO using 5-fold dilutions to generate 10-point dose response curves. These serially diluted samples were then further diluted in PBS to achieve a 2× stock. The diluted compounds were transferred to triplicate assay plates (5 μL per well to achieve the 1× final assay concentration). A positive control was included in each assay run. After one-hour incubation at room temperature, 5 μL of cAMP D2 reagent diluted in lysis buffer was added to each well, followed by 5 μL of cryptate reagent. Plates were then incubated at room temperature for one hour prior to reading. Time-resolved fluorescence measurements were collected on an HTRF-capable plate reader (e.g., EnVision® (PerkinElmer, Waltham, Mass.) or PHERAstar (BMG LABTECH, Cary, N.C.)). Counts from the plate reader were fit to the cAMP standard curve included on each plate to determine the amount of cAMP in each test well. Dose-response curves were generated from the cAMP data and analyzed using a nonlinear least squares curve-fitting program to obtain EC50 values.

T1 sequence (Q9Y2T5 whole entry): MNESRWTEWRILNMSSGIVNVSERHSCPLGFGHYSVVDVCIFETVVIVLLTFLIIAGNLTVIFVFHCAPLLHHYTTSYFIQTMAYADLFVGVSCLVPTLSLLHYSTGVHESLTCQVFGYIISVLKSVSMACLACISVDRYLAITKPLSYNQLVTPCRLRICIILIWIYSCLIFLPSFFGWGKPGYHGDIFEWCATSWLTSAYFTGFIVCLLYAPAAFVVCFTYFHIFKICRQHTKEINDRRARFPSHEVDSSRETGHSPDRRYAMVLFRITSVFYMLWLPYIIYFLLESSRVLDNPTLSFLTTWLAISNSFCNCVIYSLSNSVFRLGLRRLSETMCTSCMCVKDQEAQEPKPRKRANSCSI

Structure (SMILES) | EC50
O=C(NCCO)c1c(F)ccc2c1CCN2c1cc(Cc2cc(F)c(F)c(F)c2)ccn1 [Compound 140, 5-Fluoro-N-(2-hydroxyethyl)-1-(4-(3,4,5-trifluorobenzyl)pyridin-2-yl)indoline-4-carboxamide] | 30.1 nM
COc1ccc(Cc2ccnc(N3CCc4c3ccc(F)c4C(=O)NC[C@@H](F)CO)c2)cc1F [Compound 167, (R)-5-Fluoro-N-(2-fluoro-3-hydroxypropyl)-1-(4-(3-fluoro-4-methoxybenzyl)pyridin-2-yl)indoline-4-carboxamide] | 18.2 nM
COC[C@@H](O)CNC(=O)c1cccc2c1CCN2c1cc(Cc2cc(F)cc(Cl)c2)ccn1 [Compound 168, (S)-1-(4-(3-Chloro-5-fluorobenzyl)pyridin-2-yl)-N-(2-hydroxy-3-methoxypropyl)indoline-4-carboxamide] | 31.6 nM

Results, then the compound that gave them:

EC50 | Structure (SMILES)
18 nM | CNC(=O)CCNC(=O)c1cccc2c1CCN2c1cc(Cc2cc(F)c(F)c(F)c2)ccn1 [Compound 172]
12.9 nM | O=C(NCCO)c1cccc2c1CCN2c1ccnc(Cc2cc(F)cc(Cl)c2)c1 [Compound 187, 1-(2-(3-Chloro-5-fluorobenzyl)pyridin-4-yl)-N-(2-hydroxyethyl)indoline-4-carboxamide]
21.9 nM | COC[C@@H](O)CNC(=O)c1cccc2c1CCN2c1ccnc(Cc2cc(F)c(F)c(F)c2)c1 [Compound 189, (S)-N-(2-Hydroxy-3-methoxypropyl)-1-(2-(3,4,5-trifluorobenzyl)pyridin-4-yl)indoline-4-carboxamide]
5.54 nM | COc1ccc(Cc2ccnc(N3CCc4c(C(=O)NCCF)cccc43)c2)cc1F [Compound 203, 1-(4-(3-fluoro-4-methoxybenzyl)pyridin-2-yl)-N-(2-fluoroethyl)indoline-4-carboxamide]
8.56 nM | COc1ccc(Cc2ccnc(N3CCc4c(C(=O)NCCOCCO)cccc43)c2)cc1F [Compound 205, 1-(4-(3-fluoro-4-methoxybenzyl)pyridin-2-yl)-N-(2-(2-hydroxyethoxy)ethyl)indoline-4-carboxamide]

System: male C57/BL6 mice
Experiment: Mouse basal locomotor activity
Format: in vivo
Details: po, 10 mg/kg P.O.
Experimental: To measure basal locomotor activity, male C57/BL6 mice (8-16 weeks) (Jackson Laboratories, Sacramento, Calif.) were transferred in home cages to the testing room approximately 60 minutes prior to testing. Approximately 15 minutes after arrival in the testing room, a dark cycle commenced, with lights turning off and infrared lights turning on for experimenter visibility. Thirty minutes after the lights were turned off, animals were individually weighed and administered either vehicle (20% hydroxypropyl-β-cyclodextrin) Compound 13 (1, 2, 5, 10, or 20 mg/kg P.O.), or another GPR52 agonist (10 mg/kg P.O.) and returned to home cages. Fifteen minutes later, mice were placed into locomotor cages and activity was recorded for 60 minutes.

Structure (SMILES) | inhibition at 10 mg/kg
NC(=O)c1cccc2c1CCN2c1cc(Cc2ccc(F)c(C(F)(F)F)c2)ccn1 [Compound 61, 1-(4-(4-Fluoro-3-(trifluoromethyl)benzyl)pyridin-2-yl)indoline-4-carboxamide] | 61%
NC(=O)c1cccc2c1CCN2c1cc(Cc2ccc3occc3c2)ccn1 [Compound 106, 1-(4-(Benzofuran-5-ylmethyl)pyridin-2-yl)indoline-4-carboxamide] | 81%
COC[C@@H](O)CNC(=O)c1cccc2c1CCN2c1cc(Cc2cc(F)c(F)c(F)c2)ccn1 [Compound 138, (S)—N-(2-Hydroxy-3-methoxypropyl)-1-(4-(3,4,5-trifluorobenzyl)pyridin-2-yl)indoline-4-carboxamide] | 72%
O=C(NCCO)c1c(F)ccc2c1CCN2c1cc(Cc2cc(F)c(F)c(F)c2)ccn1 [Compound 140, 5-Fluoro-N-(2-hydroxyethyl)-1-(4-(3,4,5-trifluorobenzyl)pyridin-2-yl)indoline-4-carboxamide] | 68%
COc1ccc(Cc2ccnc(N3CCc4c3ccc(F)c4C(=O)NC[C@@H](F)CO)c2)cc1F [Compound 167, (R)-5-Fluoro-N-(2-fluoro-3-hydroxypropyl)-1-(4-(3-fluoro-4-methoxybenzyl)pyridin-2-yl)indoline-4-carboxamide] | 62%
C[C@@H](O)CNC(=O)c1cccc2c1CCN2c1cc(Cc2cc(F)c(F)c(F)c2)ccn1 [Compound 179, (R)—N-(2-Hydroxypropyl)-1-(4-(3,4,5-trifluorobenzyl)pyridin-2-yl)indoline-4-carboxamide] | 68%
COc1ccc(Cc2ccnc(N3CCc4c(C(=O)NC[C@@H](F)CO)cccc43)c2)cc1F [Compound 202, (R)—N-(2-Fluoro-3-hydroxypropyl)-1-(4-(3-fluoro-4-methoxybenzyl)pyridin-2-yl)indoline-4-carboxamide] | 67%
